Test systems include OVCAR-3 ovarian; SR leukemia; SK-MEL-28 melanoma; A549 NSCLC; UACC-62 melanoma; BT-549 breast; A498 renal; HOP-62 NSCLC; SK-MEL-2 melanoma; COLO 205 colon.
Holding throughout (assay): inhibition of tumour cell growth, NCI panel, 48 h

This is an account of results in PubChem BioAssay (NCI).

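Results reflect a 48-hour exposure of cells in 96-well plates to compound at five concentrations. GI50 marks 50% less growth. Definition used: TGI = concentration required for complete inhibition of growth.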

Take `COc1cc(/C=C2\CCCC3=C2NC(C)=NC3c2cc(OC)c(OC)c(OC)c2)cc(OC)c1OC` (stereo not given): the results for the GI50 in the assay with OVCAR-3 ovarian and in the assay on SR leukemia were 2.65 µM and 0.436 µM, respectively. Also, the values for the TGI in the assay with OVCAR-3 ovarian and in the assay on SR leukemia were above 100 µM and 7.66 µM, respectively.
Consider `CCN(CC)CC(=O)O[C@]1(CC)C(=O)OCc2c1cc1n(c2=O)Cc2cc3ccccc3nc2-1`, for which the TGI came out at 39.1 µM in the assay with SK-MEL-28 melanoma; 0.947 µM in the assay on OVCAR-3 ovarian; 2.37 µM in the assay on A549 NSCLC; 0.0261 µM in the assay with UACC-62 melanoma; 1.93 µM in the assay on BT-549 breast; 0.256 µM in the assay with A498 renal. The TGI with HOP-62 NSCLC is below 0.048 µM; in the assay on SK-MEL-2 melanoma, 1.42 µM; with COLO 205 colon it was 3.22 µM.
Regarding `NC(N)=N/N=C/c1c(-c2cccc([N+](=O)[O-])c2)nc2n1CCS2`, the TGI was found to be 41.5 µM with SK-MEL-28 melanoma; 63 µM with OVCAR-3 ovarian; 34.9 µM with SR leukemia; 41 µM in the assay on A549 NSCLC; 39 µM in the assay on UACC-62 melanoma; 32.2 µM in the assay on BT-549 breast. For the same compound, the TGI in the assay with A498 renal is 32.9 µM; in the assay on HOP-62 NSCLC, above 100 µM; in the assay on SK-MEL-2 melanoma, 34 µM; in the assay on COLO 205 colon, 60.6 µM.
Take `O=C1CCCCC2N(C(c3ccccc3)c3ccccc3)CC[C@@]12c1ccccc1` (mixture of isomers): the TGI with SK-MEL-28 melanoma, in the assay with OVCAR-3 ovarian, in the assay on A549 NSCLC, with UACC-62 melanoma and in the assay with A498 renal was above 10 µM throughout.
On to `CN(C)CCCN1c2ccccc2Sc2cnccc21`, for which the TGI in the assay on SK-MEL-28 melanoma, in the assay on OVCAR-3 ovarian, with SR leukemia, with A549 NSCLC, with UACC-62 melanoma and in the assay with BT-549 breast was above 100 µM in each case. Further, the TGI was above 100 µM in the assay on A498 renal, above 100 µM in the assay on HOP-62 NSCLC, 94 µM in the assay with SK-MEL-2 melanoma and above 100 µM in the assay on COLO 205 colon.
As to `Cc1cc(O)c(C(C)(C)C)cc1Sc1cc(C(C)(C)C)c(O)cc1C`, the GI50 in the assay on SK-MEL-28 melanoma is 1.63 µM; with OVCAR-3 ovarian it was 2.23 µM; in the assay on SR leukemia, 1.89 µM; in the assay with A549 NSCLC, 3.1 µM; with UACC-62 melanoma, 1.32 µM; with A498 renal, 2.21 µM. Also, the GI50 in the assay with HOP-62 NSCLC was 2.11 µM; in the assay on SK-MEL-2 melanoma it was 2.46 µM; in the assay on COLO 205 colon it was 2.83 µM. The TGI came out at 3.09 µM with SK-MEL-28 melanoma; 5.45 µM in the assay on OVCAR-3 ovarian; 7.23 µM with SR leukemia; 10.3 µM in the assay with A549 NSCLC; 3.11 µM with UACC-62 melanoma; 6.29 µM in the assay with A498 renal. Besides, the results for the TGI in the assay with HOP-62 NSCLC, with SK-MEL-2 melanoma and in the assay on COLO 205 colon were 4.74 µM, 4.51 µM and 7.24 µM, respectively.
Take `Clc1ccccc1/C=C/c1cscn1`: the TGI in the assay with SK-MEL-28 melanoma, in the assay with OVCAR-3 ovarian, with SR leukemia, with UACC-62 melanoma, with A498 renal and in the assay with HOP-62 NSCLC was above 100 µM in each case. Besides, the TGI in the assay with SK-MEL-2 melanoma is above 100 µM.
Turning to `O=C(O)Cc1cc(O)c(CC(=O)O)cc1O`, the TGI with SK-MEL-28 melanoma, in the assay on OVCAR-3 ovarian, with SR leukemia, in the assay on A549 NSCLC, in the assay with UACC-62 melanoma and in the assay on BT-549 breast was above 100 µM each time. For the same compound, the TGI in the assay with A498 renal, in the assay on HOP-62 NSCLC and in the assay on SK-MEL-2 melanoma was above 100 µM in each case.
Regarding `CCOC(=O)CN=C1NNS(=O)(=O)c2ccccc21`, the TGI in the assay with SK-MEL-28 melanoma, in the assay with OVCAR-3 ovarian, in the assay with SR leukemia, in the assay on A549 NSCLC, with UACC-62 melanoma and in the assay with BT-549 breast was above 100 µM in each case. Moreover, the TGI in the assay with A498 renal, in the assay with HOP-62 NSCLC and in the assay on COLO 205 colon was above 100 µM in each case.
Consider `COc1ccc(C2C3=C(Nc4ncnn42)c2ccccc2OC3c2ccccc2)cc1` (stereo not given), for which the TGI with OVCAR-3 ovarian was above 100 µM; in the assay with SR leukemia, above 100 µM; in the assay on A549 NSCLC, above 100 µM; in the assay with UACC-62 melanoma, above 100 µM; with BT-549 breast, 41.5 µM; with A498 renal it was 6.36 µM. Moreover, the TGI in the assay on HOP-62 NSCLC is above 100 µM; with SK-MEL-2 melanoma, 53.9 µM; with COLO 205 colon it was above 100 µM.
As to `CCOC(=O)C(O)(NC(=O)c1ccc(F)cc1)C(F)(F)F` (stereo not given), the TGI with SK-MEL-28 melanoma, with OVCAR-3 ovarian, in the assay on SR leukemia, in the assay with A549 NSCLC, in the assay with UACC-62 melanoma and in the assay on BT-549 breast was above 100 µM throughout. Moreover, the TGI in the assay with HOP-62 NSCLC, with SK-MEL-2 melanoma and in the assay on COLO 205 colon was above 100 µM in each case.
Take `Cn1c(=O)c2[nH]c(CCCCC(=O)O)nc2n(C)c1=O`: the TGI in the assay on SK-MEL-28 melanoma, with OVCAR-3 ovarian, in the assay with A549 NSCLC, in the assay with UACC-62 melanoma, with BT-549 breast and in the assay with A498 renal was above 100 µM in each case. Also, the TGI with HOP-62 NSCLC and in the assay with SK-MEL-2 melanoma was above 100 µM in each case.
With `N#Cc1c(Cl)c2cc([N+](=O)[O-])ccc2n2c1nc1ccccc12`, the TGI was 30 µM in the assay with SK-MEL-28 melanoma; 29.6 µM with OVCAR-3 ovarian; above 100 µM with A549 NSCLC; 35.4 µM with UACC-62 melanoma; 34.4 µM in the assay with BT-549 breast; above 55.6 µM with A498 renal. Besides, the TGI with HOP-62 NSCLC was 47.4 µM; in the assay with SK-MEL-2 melanoma, 36.4 µM; in the assay with COLO 205 colon, 4.67 µM.
Consider `CN(/N=C/c1ccc(OCc2cccc(COc3ccc(C=O)cc3)n2)cc1)c1cnn(-c2ccc(Cl)cc2Cl)c(=O)c1Cl`, for which the TGI in the assay with SK-MEL-28 melanoma, in the assay with OVCAR-3 ovarian, with SR leukemia, in the assay on A549 NSCLC, in the assay on UACC-62 melanoma and with BT-549 breast was above 100 µM each time. Further, the TGI in the assay with A498 renal, in the assay on HOP-62 NSCLC, in the assay with SK-MEL-2 melanoma and in the assay with COLO 205 colon was above 100 µM in each case.
Take `O=C1NN(C2=NNC3(C(=O)N2)c2ccccc2-c2ccccc23)C(c2ccccc2)=N/C1=C/c1ccc(O)cc1`: the GI50 with SK-MEL-28 melanoma is 83 µg/mL; in the assay on OVCAR-3 ovarian it was 55.1 µg/mL; with SR leukemia, 59.7 µg/mL; in the assay on A549 NSCLC, 74.7 µg/mL; with UACC-62 melanoma, 33.5 µg/mL; with BT-549 breast, above 150 µg/mL. Moreover, the figures for the GI50 in the assay on HOP-62 NSCLC and in the assay with COLO 205 colon were 39.9 µg/mL and above 150 µg/mL, respectively. Also, the TGI in the assay on SK-MEL-28 melanoma is above 150 µg/mL; with OVCAR-3 ovarian it was above 150 µg/mL; in the assay with SR leukemia, above 150 µg/mL; with A549 NSCLC, above 150 µg/mL; with UACC-62 melanoma, 92.2 µg/mL; with BT-549 breast, above 150 µg/mL. Moreover, the TGI in the assay on HOP-62 NSCLC is 138 µg/mL; in the assay on COLO 205 colon, above 150 µg/mL.
As for `O=S1(=O)N(CCNc2nccc(-c3c(-c4cccc(O)c4)nc4sccn34)n2)CCN1Cc1ccccc1`, the GI50 is 0.417 µM in the assay with SK-MEL-28 melanoma; 6.23 µM with OVCAR-3 ovarian; 9.76 µM in the assay on SR leukemia; 12.5 µM in the assay on A549 NSCLC; 0.136 µM in the assay with UACC-62 melanoma; 1.78 µM in the assay with A498 renal. Besides, the GI50 in the assay on HOP-62 NSCLC was 24.6 µM; in the assay with SK-MEL-2 melanoma it was 1.55 µM; with COLO 205 colon, 0.621 µM. The TGI in the assay on SK-MEL-28 melanoma is above 50 µM; in the assay on OVCAR-3 ovarian, above 50 µM; in the assay on SR leukemia, above 50 µM; in the assay on A549 NSCLC it was above 50 µM; with UACC-62 melanoma, 5.29 µM; in the assay with A498 renal it was 4.35 µM. Further, the values for the TGI with HOP-62 NSCLC, in the assay with SK-MEL-2 melanoma and in the assay on COLO 205 colon were above 50 µM, 4.59 µM and 32.3 µM, respectively.
Regarding `Cc1nc2ccccc2n1C(=O)c1c(F)c(F)c(F)c(F)c1F`, the TGI with SK-MEL-28 melanoma was 82.9 µM; in the assay on OVCAR-3 ovarian, 71.6 µM; in the assay on SR leukemia, above 100 µM; in the assay on A549 NSCLC, above 100 µM; in the assay on UACC-62 melanoma, 44.1 µM; in the assay on BT-549 breast it was 39.5 µM. Also, the TGI in the assay on A498 renal was 57 µM; in the assay with HOP-62 NSCLC it was 68.3 µM; in the assay on SK-MEL-2 melanoma, 46.6 µM; with COLO 205 colon, 77.9 µM.
Regarding `O=c1c2cc(S(=O)(=O)O)ccc2nc(COc2ccc(Oc3ccc(Cl)cc3Cl)cc2)n1-c1ccc(Cl)cc1Oc1c(Cl)cccc1Cl`, the TGI turned out to be 61.1 µM in the assay on OVCAR-3 ovarian; 96.7 µM with SR leukemia; 72.1 µM in the assay with A549 NSCLC; 48.9 µM in the assay with UACC-62 melanoma; 61.1 µM in the assay on BT-549 breast; 67.3 µM with A498 renal. In addition, the results for the TGI in the assay on HOP-62 NSCLC, in the assay on SK-MEL-2 melanoma and in the assay with COLO 205 colon were above 100 µM, 35.6 µM and 32.1 µM, respectively.
Consider `C=CC1(C)CCC2=C(CCC3C(C)(C(=O)OC)CCCC23C)C1=O` (stereo not given), for which the TGI in the assay on OVCAR-3 ovarian was 35.3 µM; with SR leukemia it was 42 µM; with UACC-62 melanoma, 33.7 µM; in the assay with A498 renal, 28.4 µM; with HOP-62 NSCLC, 31.3 µM; in the assay with SK-MEL-2 melanoma, 33.9 µM. Moreover, in the assay with COLO 205 colon, the TGI amounted to 34.6 µM.
Turning to `COc1cc(O)c2c(c1)OCC(Cc1ccc(O)cc1)C2=O` (stereo not given), the TGI in the assay with SK-MEL-28 melanoma, with OVCAR-3 ovarian, in the assay with SR leukemia, in the assay on A549 NSCLC, in the assay on UACC-62 melanoma and in the assay on A498 renal was above 100 µM throughout. In addition, the TGI with HOP-62 NSCLC, in the assay with SK-MEL-2 melanoma and with COLO 205 colon was above 100 µM throughout.
`Cc1ccc2c(c1)C1(C)OC(C=CC1=O)O2` (stereo not given): the TGI was 2.03 µM in the assay with SK-MEL-28 melanoma; 1.16 µM with OVCAR-3 ovarian; 1.09 µM with SR leukemia; 10.1 µM with A549 NSCLC; 3.6 µM in the assay with UACC-62 melanoma; 1.57 µM in the assay with BT-549 breast. In addition, the TGI is 13.4 µM with A498 renal, 12.2 µM in the assay on HOP-62 NSCLC, 5.85 µM in the assay with SK-MEL-2 melanoma and 1.43 µM with COLO 205 colon.
